Legend:
Format in all cases: in vivo
[1] = test system: upland rice (Oryza sp., var.Tebonnet, RICE); experiment: Post-emerge greenhouse test, crop damage rating; conditions: 14 days after application
Procedure, shortened: (§1)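 Compounds in acetone with 0.25% v/v non-ionic surfactant were track-sprayed at 187 l/ha over plants at the 2-3 leaf stage, at 63 to 1000 g ai/ha. Pots were bottom-watered. Injury was scored visually 14 days later on a 0-100 scale, where 0 is no damage and 100 is complete plant death.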

[2] = test system: field corn (Zea mays L., var. Dekalb 535, CORN); experiment: Post-emerge greenhouse test, crop damage rating; conditions: 14 days after application
Procedure, shortened: as §1

[3] = test system: redroot pigweed (Amaranthus retroflexus, AMARE); experiment: Pre-emerge greenhouse herbicide test, phytotoxicity rating; conditions: 14 days after application, rating scale 0-100
Procedure, shortened: (§2)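 Seeds sown in sandy loam mix one day before track-sprayer application of compounds in acetone at 125–1000 g ai/ha (187 l/ha), then surface-watered to incorporate and bottom-watered. Visual rating 14 days after application on a 0–100 scale (0 = no damage, 100 = all plants dead).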

[4] = test system: large crabgrass (Digitaria sanguinalis, DIGSA); experiment: as above; conditions: 14 days after application, rating scale 0-100
Procedure, shortened: as §2

[5] = test system: lambsquarters (Chenopodium album, CHEAL); experiment: as above; conditions: 14 days after application, rating scale 0-100
Procedure, shortened: as §2

[6] = test system: barnyardgrass (Echinochloa crusgalli, ECHCG); experiment: as above; conditions: 14 days after application, rating scale 0-100
Procedure, shortened: as §2

[7] = test system: green foxtail (Setaria viridis, SETVI); experiment: as above; conditions: 125 g ai/ha, 14 days after application, rating scale 0-100
Procedure, shortened: as §2

[8] = test system: common ragweed (Ambrosia artemisiifolia L., AMBEL); experiment: as above; conditions: 14 days after application, rating scale 0-100
Procedure, shortened: as §2

[9] = test system: ivyleaf morningglory (Ipomoea hederacea, IPOHE); experiment: as above; conditions: 14 days after application, rating scale 0-100
Procedure, shortened: as §2

[10] = test system: velvetleaf (Abutilon theophrasti, ABUTH); experiment: as above; conditions: 14 days after application, rating scale 0-100
Procedure, shortened: as §2

[11] = test system: sicklepod (Cassia obtusifolia, CASOB); experiment: as above; conditions: 14 days after application, rating scale 0-100
Procedure, shortened: as §2

[12] = test system: Johnsongrass (Sorghum halepense, SORHA); experiment: as above; conditions: 14 days after application, rating scale 0-100
Procedure, shortened: as §2

[13] = test system: soybean (Glycine max L., var. Pella 86, SOY); experiment: Pre-emerge greenhouse test, crop damage rating; conditions: 14 days after application, rating scale 0-100
Procedure, shortened: as §2

[14] = test system: soybean (Glycine max L., var. Pella 86, SOY); experiment: Post-emerge greenhouse test, crop damage rating; conditions: 14 days after application
Procedure, shortened: as §1

[15] = test system: common ragweed (Ambrosia artemisiifolia L., AMBEL); experiment: Post-emerge greenhouse herbicide test, phytotoxicity rating; conditions: 14 days after application
Procedure, shortened: as §1

[16] = test system: redroot pigweed (Amaranthus retroflexus, AMARE); experiment: as above; conditions: 14 days after application
Procedure, shortened: as §1

[17] = test system: large crabgrass (Digitaria sanguinalis, DIGSA); experiment: as above; conditions: 14 days after application
Procedure, shortened: as §1

[18] = test system: lambsquarters (Chenopodium album, CHEAL); experiment: as above; conditions: 14 days after application
Procedure, shortened: as §1

[19] = test system: barnyardgrass (Echinochloa crusgalli, ECHCG); experiment: as above; conditions: 14 days after application
Procedure, shortened: as §1

[20] = test system: green foxtail (Setaria viridis, SETVI); experiment: as above; conditions: 14 days after application
Procedure, shortened: as §1

[21] = test system: ivyleaf morningglory (Ipomoea hederacea, IPOHE); experiment: as above; conditions: 14 days after application
Procedure, shortened: as §1

[22] = test system: velvetleaf (Abutilon theophrasti, ABUTH); experiment: as above; conditions: 14 days after application
Procedure, shortened: as §1

[23] = test system: Johnsongrass (Sorghum halepense, SORHA); experiment: as above; conditions: 14 days after application
Procedure, shortened: as §1

[24] = test system: upland rice (Oryza sp., var.Tebonnet, RICE); experiment: Pre-emerge greenhouse test, crop damage rating; conditions: 14 days after application, rating scale 0-100
Procedure, shortened: as §2

[25] = test system: field corn (Zea mays L., var. Dekalb 535, CORN); experiment: Pre-emerge greenhouse test, crop damage rating; conditions: 14 days after application, rating scale 0-100
Procedure, shortened: as §2

Cn1nc(-c2cc(Oc3ncccc3C#N)c(Cl)cc2F)c(Cl)c1C(F)(F)F [Compound 1-3]
70: RICE crop damage rating (0-100) ([1]; 500 g al/ha) | ECHCG phytotoxicity rating (0-100) ([19]; 500 g al/ha) | ABUTH phytotoxicity rating (0-100) ([22]; 63 g al/ha)
100: phytotoxicity rating AMARE ([3]; 125 g ai/ha) | phytotoxicity rating AMARE ([3]; 500 g ai/ha) | phytotoxicity rating CHEAL ([5]; 500 g ai/ha) | phytotoxicity rating ECHCG ([6]; 500 g ai/ha) | AMARE phytotoxicity rating (0-100) ([16]; 63 g al/ha) | AMARE phytotoxicity rating (0-100) ([16]; 500 g al/ha) | CHEAL phytotoxicity rating (0-100) ([18]; 500 g al/ha) | ABUTH phytotoxicity rating (0-100) ([22]; 500 g al/ha)
95: phytotoxicity rating SETVI [7] | crop damage rating SOY ([13]; 500 g ai/ha) | CHEAL phytotoxicity rating (0-100) ([18]; 63 g al/ha)
50: phytotoxicity rating AMBEL ([8]; 125 g ai/ha) | phytotoxicity rating AMBEL ([8]; 500 g ai/ha)
90: phytotoxicity rating CHEAL ([5]; 125 g ai/ha) | SOY crop damage rating (0-100) ([14]; 500 g al/ha) | SETVI phytotoxicity rating (0-100) ([20]; 500 g al/ha) | IPOHE phytotoxicity rating (0-100) ([21]; 63 g al/ha)
40: phytotoxicity rating SORHA ([12]; 500 g ai/ha) | crop damage rating CORN ([25]; 500 g ai/ha)
10: CORN crop damage rating (0-100) ([2]; 500 g al/ha) | IPOHE phytotoxicity rating (0-100) ([21]; 500 g al/ha)
0: CORN crop damage rating (0-100) ([2]; 63 g al/ha) | phytotoxicity rating DIGSA ([4]; 500 g ai/ha) | phytotoxicity rating ECHCG ([6]; 125 g ai/ha) | phytotoxicity rating IPOHE ([9]; 125 g ai/ha) | phytotoxicity rating ABUTH ([10]; 500 g ai/ha) | phytotoxicity rating CASOB ([11]; 125 g ai/ha) | phytotoxicity rating SORHA ([12]; 125 g ai/ha) | crop damage rating SOY ([13]; 125 g ai/ha) | AMBEL phytotoxicity rating (0-100) ([15]; 63 g al/ha) | DIGSA phytotoxicity rating (0-100) ([17]; 63 g al/ha) | ECHCG phytotoxicity rating (0-100) ([19]; 63 g al/ha) | SETVI phytotoxicity rating (0-100) ([20]; 63 g al/ha) | crop damage rating RICE ([24]; 125 g ai/ha) | crop damage rating CORN ([25]; 125 g ai/ha)
80: phytotoxicity rating CASOB ([11]; 500 g ai/ha) | AMBEL phytotoxicity rating (0-100) ([15]; 500 g al/ha) | DIGSA phytotoxicity rating (0-100) ([17]; 500 g al/ha) | SORHA phytotoxicity rating (0-100) ([23]; 500 g al/ha)
30: phytotoxicity rating IPOHE ([9]; 500 g ai/ha) | SOY crop damage rating (0-100) ([14]; 63 g al/ha) | crop damage rating RICE ([24]; 500 g ai/ha)
20: RICE crop damage rating (0-100) ([1]; 63 g al/ha) | phytotoxicity rating DIGSA ([4]; 125 g ai/ha) | phytotoxicity rating ABUTH ([10]; 125 g ai/ha) | SORHA phytotoxicity rating (0-100) ([23]; 63 g al/ha)
